# Assay results published in ChEMBL document CHEMBL5625207, “RIPK2 inhibitors for disease therapy: Current status and perspectives” (Eur J Med Chem, 2023).
# Tests used:
# [1] = target: T1, Receptor-interacting serine/threonine-protein kinase 2 (Homo sapiens, UniProt O43353); test: Inhibition of full length FLAG His-tagged RIPK2 (unknown origin) expressed in Baculovirus by fluorescence polarization assay
# [2] = target: T1, Receptor-interacting serine/threonine-protein kinase 2; test: Inhibition of RIPK2 (unknown origin)
# [3] = target: T1, Receptor-interacting serine/threonine-protein kinase 2; test: Inhibition of RIPK2 (unknown origin) by ADP-Glo assay
# [4] = target: T1, Receptor-interacting serine/threonine-protein kinase 2; test: Inhibition of RIPK2 (unknown origin) expressed in Escherichia coli
# [5] = target: T1, Receptor-interacting serine/threonine-protein kinase 2; test: Inhibition of RIPK2 (unknown origin) using (CRRKSLVGTPYWMAPE) peptide as substrate pre-incubated for 60 mins followed by substrate addition and measured after 2 hrs by fluorescence polarization assay
# [6] = target: von Hippel-Lindau disease tumor suppressor/Receptor-interacting serine/threonine-protein kinase 2 (Homo sapiens, UniProt O43353+P40337); test: Protac activity at VHL/RIPK2 in human THP-1 cells assessed as RIPK2 degradation measured after 16 hrs by Western blot analysis; type: cell-based
# Chain of von Hippel-Lindau disease tumor suppressor/Receptor-interacting serine/threonine-protein kinase 2 (O43353 whole entry): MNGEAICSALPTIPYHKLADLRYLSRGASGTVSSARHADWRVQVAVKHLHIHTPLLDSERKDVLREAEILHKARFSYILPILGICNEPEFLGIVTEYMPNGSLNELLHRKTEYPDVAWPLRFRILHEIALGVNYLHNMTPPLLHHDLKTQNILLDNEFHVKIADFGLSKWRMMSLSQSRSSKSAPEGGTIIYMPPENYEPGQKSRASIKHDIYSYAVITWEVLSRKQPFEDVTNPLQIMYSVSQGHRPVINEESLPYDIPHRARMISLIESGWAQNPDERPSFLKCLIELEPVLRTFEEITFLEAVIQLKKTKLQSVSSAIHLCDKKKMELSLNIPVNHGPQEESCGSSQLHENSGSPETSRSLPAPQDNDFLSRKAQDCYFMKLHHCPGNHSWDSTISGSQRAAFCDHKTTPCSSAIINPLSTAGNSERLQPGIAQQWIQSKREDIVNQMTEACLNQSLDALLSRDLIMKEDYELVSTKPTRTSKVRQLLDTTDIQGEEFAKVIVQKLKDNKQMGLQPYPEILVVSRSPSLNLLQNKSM
# Chain of von Hippel-Lindau disease tumor suppressor/Receptor-interacting serine/threonine-protein kinase 2 (P40337 whole entry): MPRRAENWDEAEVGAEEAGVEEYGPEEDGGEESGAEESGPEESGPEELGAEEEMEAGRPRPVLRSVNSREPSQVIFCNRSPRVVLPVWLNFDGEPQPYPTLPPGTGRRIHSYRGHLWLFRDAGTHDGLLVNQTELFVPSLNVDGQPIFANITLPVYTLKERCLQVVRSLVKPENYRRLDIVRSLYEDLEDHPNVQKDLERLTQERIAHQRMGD
# T1 sequence (O43353 whole entry): as the sequence (O43353 whole entry) above
compound,measurement,setting,value
Cc1ccc(-c2cn([C@H]3CC[C@@H](N)CC3)c3ncnc(N)c23)c(F)c1,IC50,[1],0.6 nM
same,IC50,[2],0.6 nM
c1cc(-c2ccc3ncnc(Nc4ccc5scnc5c4)c3c2)ccn1,IC50,[3],5.1 nM
same,IC50,[1],5.1 nM
c1cc2cc(n1)NCCOCCNc1ccc3ncc-2n3n1,IC50,[4],14.1 nM
same,IC50,[1],14.1 nM
Cc1ccc(-c2nn(C(C)(C)CN(C)C)c3ncnc(N)c23)cc1,IC50,[5],1010 nM
same,IC50,[1],10 nM
Cc1ncsc1-c1ccc(CNC(=O)C2C[C@H](O)CN2C(=O)[C@@H](NC(=O)COCCOCCOCCOCCOc2cc3nccc(Nc4ccc5scnc5c4)c3cc2S(=O)(=O)C(C)(C)C)C(C)(C)C)cc1 (some centres undefined),IC50,[6],2 nM
